We go through four compounds from publication PMC10754035 (Cancer Research Communications, 2023).

Where two headings read alike, the source gives them in different places.

For assay [1], the target named is T1, KRAS G12D (Homo sapiens, UniProt P01116, G12D).
T1 construct: Human His-tagged KRAS4B (1-169) G12D, G12V and G12C were custom synthesized; 6His (pET-28a(+)-TEV vector) (N); host or cells: E. coli BL21 star (DE3)
Also on record: method as in PMID 31332011. Particulars: ITC; cited from earlier work.

The target of assay [2] is T1, KRAS G12D. The assay is described as follows: Isothermal titration calorimetry, KRAS G12D. Particulars: ITC, KRAS G12D-NE (non-exchanged), 25°C. It is filed as binding. The method, then: All isothermal titration calorimetry (ITC) experiments were carried out at 25°C on a MicroCal PEAQ ITC Automated (Malvern). […] The final ITC buffer in the syringe and the cell was 25 mmol/L Tris HCl (pH 8.0), 100 mmol/L NaCl, 0.1 mmol/L DTT, 5% glycerol, 1% NP40, 5 mmol/L MgCl2, and 5% DMSO. ITC titration experiments were carried out with 19 injections, 2 µL per injection, and 150 seconds spacing between each injection. Reference cell power was set to 5 µcal/second and stirring speed was 750 rpm. Data were analyzed using a one site binding model with the Malvern analysis software. All ITC experiments were performed at the biophysical facility at the Institute for Structural Biology, Drug Discovery and Development (ISB3D) at Virginia Commonwealth University (Richmond, VA) and the Massey Cancer Center.
Expression and purification of RAS proteins: Human His-tagged KRAS4B (1-169) G12D, G12V and G12C were custom synthesized and cloned into pET-28a(+)-TEV vector to generate pET-28a(+)-6His-KRAS (1-169) plasmids by GenScript USA Inc., Piscataway, NJ. The proteins were expressed and purified as described below. The full length biotinylated human KRAS4B G12D (His6-MBP-tev-Avi-Hs.KRAS4b G12D (2-188) protein was obtained from Dr Dominic Esposito and Dr. William Gillette from the NCI RAS Initiative at the Frederick National Laboratory. Avi-KRAS4b (2-188) G12D was cloned, expression and purified as described previously (1,2).
Expression and purification of KRAS proteins: BL21 star (DE3) competent cells were transformed with pET-28a(+)-6His-KRAS (1-169) plasmids from GenScript, and the resulting colonies were picked under kanamycin selection. The colonies were grown in LB broth and induced with 0.5mM IPTG for 4 hours when OD reached 0.6-0.8. Bacteria pellets were lysed in 25mM Tris HCL (pH7.8) buffer containing 300mM NaCl, 5mM MgCl2, 10mM Imidazole, 5% Glycerol and 3mM β-mercaptoethanol. Membrane filter-cleared lysate supernatants were incubated with HisPur Ni-NTA resin (Thermo scientific) in an oscillating platform at 4°C for 50 minutes. Econo disposable column (Bio-Rad) was used for washing the beads 3 times with 25mM Tris HCl (pH7.8), 300mM NaCl, 5mM MgCl2, 5% Glycerol buffer with 10mM, 20mM and 30mM Imidazole, respectively. Elution was carried with 25mM Tris HCl (pH7.8), 300mM NaCl, 5mM MgCl2, 5% Glycerol and 500mM Imidazole buffer. After confirming the eluted fraction purity on SDS-PAGE gel, proteins fractions were further purified using HiLoad 16/600 superdex 75 PG column in AKTA system. Protein was eluted in 25mM Tris HCL (pH7.8), 150mM NaCl, 5mM MgCl2 and 0.5mM DTT. KRAS protein aliquots were stored in -80°C.
GCP and NH-GDP nucleotide exchange for ITC: KRAS G12D protein in 25 mM Tris HCL (pH 8.0), 1 mM Calcium Chloride Dihydrate and 200 mM (NH4)2SO4 buffer was added to alkaline phosphatase beads (Sigma, USA) (2U per mg of KRAS) and to non-hydrolysable nucleotide analogs, GCP (β,γ-Methyleneguanosine 5′-triphosphate sodium salt, Sigma, USA) or GDP-NH (Guanosine 5′-[β-thio]diphosphate trilithium salt, Sigma, USA) in molar ratio of 10:1 (Nucleotide:KRAS). The reaction mixture was incubated with gentle rotation for 14-18 hrs at 4 °C. After incubation, the mixture was centrifuged at 1500 g, 4°C to remove the alkaline phosphatase beads. MgCl2 (20 mM) and an additional amount of GCP or NH-GDP in molar ratio of 5:1 (Nucleotide:KRAS) were added, and incubated at room temperature for 1 hr. After incubation, nucleotide exchanged protein was desalted and buffer exchanged at 4 °C using PD-10 column (Catalog # 17085101, GE Healthcare, USA), into a final buffer containing 25 mM Tris HCL (pH 7.5), 150 mM NaCl, 5 mM MgCl2 and 0.5 mM DTT. Buffer exchanged protein was concentrated using Amicon ultra centrifugal filter-10K cut off (Catalog # UFC501024, MilliporeSigma, USA). The protein concentration was measured using Pierce Rapid GOLD BCA Protein Assay Kit (Thermo Scientific, USA) and aliquots were stored in -80°C.

Assay [3] concerns the target T2, GTP-KRAS G12D binding to GST-RBD (Homo sapiens, UniProt P01116, G12D).
T2 construct: Human His-tagged KRAS4B (1-169) G12D, G12V and G12C were custom synthesized; Addgene (GST-RBD) Addgene 13338; host or cells: E. coli BL21 star (DE3)
The assay is described as follows: KRAS G12D/GST-RBD pulldown assay. The note with it: for IC50: GST pulldown, Fig. 2 legend, read-out: IC50, inhibition of GTP-KRAS G12D/GST-RBD binding. The assay is classed as biochemical. As for the experimental part:
For pulldown experiment, KRAS G12D was preloaded with either GTP or GDP as described above. GDP- or GTP-bound KRAS G12D proteins (250 nmol/L in 100 µL) were then incubated with indicated compound at 37°C for 15–16 minutes. GST-RBD (final 500 nmol/L) was then added and the mixture rocked at 37°C for 1 hour. Pierce glutathione agarose beads (Thermo Fisher Scientific; 20 µL) were then added and the mixture rocked at 37°C for 1 hour. The beads were then washed and the samples were processed for SDS-PAGE and Western blotting with respective antibodies to check the interaction between KRAS-GTP and GST-RBD proteins in presence or absence of the compounds. All the protein dilutions and washes were carried out in a buffer containing 25 mmol/L Tris (pH 7.5), 100 mmol/L NaCl, 5 mmol/L MgCl2, 1% NP-40, 5% glycerol, and 0.1 mmol/L DTT.
Expression and purification of GST-RBD: The Raf1-GST-RBD in pGEX-2T vector in DH5α cells was obtained from Addgene (Raf1 GST RBD 1-149, Plasmid catalog # 13338). GST-RBD plasmid DNA was transformed in BL21*(DE3) bacteria, streaked on agar plate to obtain the colonies . A distinct colony was picked and grown in ampicillin selection media to OD600 of around 0.6-0.8 before induction with IPTG (0.5 mM). Bacterial pellet was resuspended with lysis buffer (50 mM Tris HCL (pH 7.5), 150 mM NaCl, 0.5% Triton X-100, 5 mM MgCl2, 1 mM DTT, 10% Glycerol, 3 mM β-mercaptoethanol) and homogenized. The homogenized lysate was centrifuged at 14000 rpm at 4 °C for 40 min and the resulting supernatant was collected and filtered. The filtered supernatant was incubated with glutathione agarose (Pierce^TM) beads (Thermo Scientific, USA) at 4 °C for 60 min. After incubation, beads and lysate suspension was passed through Bio-Rad Econo column. The beads were washed using lysis buffer (as described above), and the GST-RBD eluted with elution buffer (50 mM Tris HCL (pH 7.5), 150 mM NaCl, 0.5% Triton X-100, 5 mM MgCl2, 1 mM DTT, 10% Glycerol, 10 mM Glutathione). Eluted GST-RBD protein fractions were buffer exchanged into 25 mM Tris (pH 7.5), 150 mM NaCl, 0.5 mM DTT and 5 mM MgCl2 buffer and stored at -80°C.
GTP and GDP nucleotide exchange for GST-RBD pull down: KRAS protein was exchanged with GTP (Sigma, USA) and GDP (Sigma, USA) using EDTA- loading procedure. The RAS proteins (235 µM final) were incubated with ~40-fold molar excess of EDTA (10 mM final), and ~45-fold molar excess of either GDP or GTP for 90 min at 37°C. After incubation, the sample was kept on ice for 10 minutes before incubating with ice-cooled 1M MgCl2 (65 mM final) for 20 minutes to stop the reaction. To remove excess unbound nucleotide, EDTA and magnesium, the proteins were re-buffered using PD10 columns (GE Life Sciences) into (25 mM Tris (pH 7.5), 150 mM NaCl, 0.5 mM DTT and 5 mM MgCl2) buffer and concentrated using Millipore spin ultrafiltration devices (10,000 Da cut off, 4,000 x g). The protein concentration was measured using Pierce Rapid GOLD BCA Protein Assay Kit (Thermo Scientific, USA) and aliquots were stored in -80°C.

T1 sequence (P01116 1-169 isoform P01116-2 G12D): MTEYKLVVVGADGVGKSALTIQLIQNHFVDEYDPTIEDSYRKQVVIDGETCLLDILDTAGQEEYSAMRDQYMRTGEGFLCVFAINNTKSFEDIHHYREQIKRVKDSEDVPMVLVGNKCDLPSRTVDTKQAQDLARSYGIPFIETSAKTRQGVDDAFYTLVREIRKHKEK
T2 sequence (P01116 1-169 isoform P01116-2 G12D): as above

On to `Cn1cnc(Cn2ccc3ccc(CNCc4[nH]c5ccccc5c4[C@H]4NC(=O)c5ccc(O)cc54)cc32)c1` [BI-2852], for which, on KRAS G12D [1], the Kd is 740 nM.
The compound `COC(=O)C1C2C3(C)C(=O)C=CC2(OC3=O)C2CCC3(CI)CC12CC3=O` (centres unmarked) [IB-21G] gave a Kd on KRAS G12D [2] of 641 nM. The IC50 in assay [3] was determined as 360 nM.
In turn, `C=C1C[C@]23C[C@@]1(OC(C)=O)CC[C@H]2[C@@]12C=CC(=O)[C@@](C)(C(=O)O1)[C@H]2[C@@H]3C(=O)OC` [IB-21J] displayed a Kd on KRAS G12D [2] of 4810 nM. Besides, the “loss of potency relative to KRB-456” value in assay [3] (GST pulldown IC50) is reported as “about 10 fold”. The IC50 in assay [3] is 2020 nM.
The compound `C=C1C[C@]23C[C@@]1(O)CC[C@H]2[C@@]12C=CC(=O)[C@@](C)(C(=O)O1)[C@H]2[C@@H]3C(=O)NCc1ccccc1` [IIA-15D] showed a Kd at KRAS G12D [2] of 11600 nM. Further, the IC50 in assay [3] amounted to 10800 nM.
